Data from the NIST ThermoML archive (doi:10.1021/je300768j).
± gives the expanded uncertainty stated by the source.

Conditions: DTA

Glass transition temperature: -75.50 ± 3 °C
Compound: CC(=O)[O-].CCn1cc[n+](C)c1 [1-ethyl-3-methylimidazolium acetate]
